Measurements reported in patent US20250171438A1 (Agios Pharmaceuticals, Inc., priority 2022, published 2025).

Target: T1, human PAH with the R408W mutation (Homo sapiens, UniProt P00439, R408W)
T1 construct: expressed in transfected cells
T1 sequence (P00439 1-452 R408W): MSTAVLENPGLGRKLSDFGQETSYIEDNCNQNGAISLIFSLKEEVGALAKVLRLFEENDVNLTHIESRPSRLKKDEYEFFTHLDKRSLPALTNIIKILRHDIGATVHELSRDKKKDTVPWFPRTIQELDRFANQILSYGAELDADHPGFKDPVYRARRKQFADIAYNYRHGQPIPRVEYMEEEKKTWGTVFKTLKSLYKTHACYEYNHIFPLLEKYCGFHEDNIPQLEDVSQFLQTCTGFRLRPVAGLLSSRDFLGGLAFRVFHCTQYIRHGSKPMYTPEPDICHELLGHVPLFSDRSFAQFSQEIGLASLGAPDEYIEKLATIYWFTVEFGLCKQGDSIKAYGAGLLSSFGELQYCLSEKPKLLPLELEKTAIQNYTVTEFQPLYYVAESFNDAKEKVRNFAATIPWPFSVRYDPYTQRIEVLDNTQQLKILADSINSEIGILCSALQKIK
Test: Cell Based Phenylalanine Flux Assay
Details: A375 cells expressing human R408W PAH; 24 hrs compound incubation; 13C-Tyrosine by LC-MS; average where tested multiple times; read-out: AC50

Compared with C[C@@H](O)c1nc(C(F)F)c(C(=O)N2CCc3[nH]cnc3[C@@H]2c2nc3c(C(F)(F)F)cccc3s2)o1 [Example 2110, (4-(difluoromethyl)-2-((R)-1-hydroxyethyl)oxazol-5-yl)((R)-4-(4-(trifluoromethyl)benzo[d]thiazol-2-yl)-6,7-dihydro-1H-imidazo[4,5-c]pyridin-5(4H)-yl)methanone], C[C@H](O)c1nc(C(F)F)c(C(=O)N2CCc3[nH]cnc3[C@H]2c2nc3c(C(F)(F)F)cccc3s2)o1 [Example 2113, (4-(difluoromethyl)-2-((S)-1-hydroxyethyl)oxazol-5-yl) ((S)-4-(4-(trifluoromethyl)benzo[d]thiazol-2-yl)-6,7-dihydro-1H-imidazo[4,5-c]pyridin-5(4H)-yl)methanone] is lower in AC50: 1000 to 5000 nM for the first, < 500 nM for the second.

First: Cn1nccc1C(=O)N1CCc2[nH]cnc2[C@H]1c1nc2c(C(F)(F)F)cccc2s1 [Example 2111, (S)-(1-methyl-1H-pyrazol-5-yl)(4-(4-(trifluoromethyl)benzo[d]thiazol-2-yl)-6,7-dihydro-1H-imidazo[4,5-c]pyridin-5(4H)-yl)methanone]
Second: Cn1nccc1C(=O)N1CCc2[nH]cnc2[C@@H]1c1nc2c(C(F)(F)F)cccc2s1 [Example 2112, (R)-(1-methyl-1H-pyrazol-5-yl)(4-(4-(trifluoromethyl)benzo[d]thiazol-2-yl)-6,7-dihydro-1H-imidazo[4,5-c]pyridin-5(4H)-yl)methanone]
The AC50 of the first is lower: 500 to 1000 nM for the first, 1000 to 5000 nM for the second.

C[C@H](O)c1nc(C(F)F)c(C(=O)N2CCc3[nH]cnc3[C@@H]2c2nc3c(C(F)(F)F)cccc3s2)o1 [Example 2114, (4-(difluoromethyl)-2-((S)-1-hydroxyethyl)oxazol-5-yl)((R)-4-(4-(trifluoromethyl)benzo[d]thiazol-2-yl)-6,7-dihydro-1H-imidazo[4,5-c]pyridin-5(4H)-yl)methanone] and Cc1nc(C(C)(C)O)oc1C(=O)N1CCc2[nH]cnc2[C@H]1c1nc2c(C(F)(F)F)cccc2s1 [Example 2115, (S)-(2-(2-hydroxypropan-2-yl)-4-methyloxazol-5-yl)(4-(4-(trifluoromethyl)benzo[d]thiazol-2-yl)-6,7-dihydro-1H-imidazo[4,5-c]pyridin-5(4H)-yl)methanone] fall in the same range of AC50: 500 to 1000 nM for the first, 500 to 1000 nM for the second.

Cc1nc(C(C)(C)O)oc1C(=O)N1CCc2[nH]cnc2[C@@H]1c1nc2c(C(F)(F)F)cccc2s1 [Example 2116, (R)-(2-(2-hydroxypropan-2-yl)-4-methyloxazol-5-yl)(4-(4-(trifluoromethyl)benzo[d]thiazol-2-yl)-6,7-dihydro-1H-imidazo[4,5-c]pyridin-5(4H)-yl)methanone] and CC(C)(O)c1nc(C(F)(F)F)c(C(=O)N2CCCc3[nH]cnc3[C@H]2c2nc3ccccc3s2)o1 [Example 2123, (S)-(4-(benzo[d]thiazol-2-yl)-7,8-dihydroimidazo[4,5-c]azepin-5(1H,4H,6H)-yl)(2-(2-hydroxypropan-2-yl)-4-(trifluoromethyl)oxazol-5-yl)methanone] fall in the same range of AC50: 1000 to 5000 nM for the first, 1000 to 5000 nM for the second.

First: O=C(c1cnc(-c2ccc(F)cc2)o1)N1CCc2[nH]cnc2[C@H]1c1nc2ccccc2s1 [Example 2117]
Second: O=C(c1cnc(-c2ccc(F)cc2)o1)N1CCc2[nH]cnc2[C@@H]1c1nc2ccccc2s1 [Example 2118, (R)-(4-(benzo[d]thiazol-2-yl)-6,7-dihydro-1H-imidazo[4,5-c]pyridin-5(4H)-yl)(2-(4-fluorophenyl)oxazol-5-yl)methanone]
The AC50 of the first is lower: < 500 nM for the first, 1000 to 5000 nM for the second.

Compared with O=C(c1oc(-c2ccccn2)nc1C1CC1)N1CCCc2[nH]cnc2[C@H]1c1nc2ccccc2s1 [Example 2119, (S)-(4-(benzo[d]thiazol-2-yl)-7,8-dihydroimidazo[4,5-c]azepin-5(1H,4H,6H)-yl)(4-cyclopropyl-2-(pyridin-2-yl)oxazol-5-yl)methanone], O=C(c1oc(-c2ccccn2)nc1C1CC1)N1CCCc2[nH]cnc2[C@@H]1c1nc2ccccc2s1 [Example 2120, (R)-(4-(benzo[d]thiazol-2-yl)-7,8-dihydroimidazo[4,5-c]azepin-5(1H,4H,6H)-yl)(4-cyclopropyl-2-(pyridin-2-yl)oxazol-5-yl)methanone] is higher in AC50: 500 to 1000 nM for the first, 1000 to 5000 nM for the second.

First: O=C(c1oc(-c2ccccn2)nc1C(F)(F)F)N1CCCc2[nH]cnc2[C@H]1c1nc2ccccc2s1 [Example 2121, (S)-(4-(benzo[d]thiazol-2-yl)-7,8-dihydroimidazo[4,5-c]azepin-5(1H,4H,6H)-yl)(2-(pyridin-2-yl)-4-(trifluoromethyl)oxazol-5-yl)methanone]
Second: O=C(c1oc(-c2ccccn2)nc1C(F)(F)F)N1CCCc2[nH]cnc2[C@@H]1c1nc2ccccc2s1 [Example 2122, (R)-(4-(benzo[d]thiazol-2-yl)-7,8-dihydroimidazo[4,5-c]azepin-5(1H,4H,6H)-yl)(2-(pyridin-2-yl)-4-(trifluoromethyl)oxazol-5-yl)methanone]
The AC50 of the first is lower: 500 to 1000 nM for the first, 1000 to 5000 nM for the second.

CC(C)(O)c1nc(C(F)(F)F)c(C(=O)N2CCCc3[nH]cnc3[C@@H]2c2nc3ccccc3s2)o1 [Example 2124, (R)-(4-(benzo[d]thiazol-2-yl)-7,8-dihydroimidazo[4,5-c]azepin-5(1H,4H,6H)-yl)(2-(2-hydroxypropan-2-yl)-4-(trifluoromethyl)oxazol-5-yl)methanone] and O=C(c1oc(C2(O)CCC2)nc1C(F)(F)F)N1CCCc2[nH]cnc2[C@H]1c1nc2ccccc2s1 [Example 2137, (S)-(4-(benzo[d]thiazol-2-yl)-7,8-dihydroimidazo[4,5-c]azepin-5(1H,4H,6H)-yl)(2-(1-hydroxycyclobutyl)-4-(trifluoromethyl)oxazol-5-yl)methanone] fall in the same range of AC50: 1000 to 5000 nM for the first, 1000 to 5000 nM for the second.

O=C(c1oc(NC2CC2)nc1C(F)(F)F)N1CCCc2[nH]cnc2[C@H]1c1nc2ccccc2s1 [Example 2127, (S)-(4-(benzo[d]thiazol-2-yl)-7,8-dihydroimidazo[4,5-c]azepin-5(1H,4H,6H)-yl)(2-(cyclopropylamino)-4-(trifluoromethyl)oxazol-5-yl)methanone] and O=C(c1oc(NC2CC2)nc1C(F)(F)F)N1CCCc2[nH]cnc2[C@@H]1c1nc2ccccc2s1 [Example 2128, (R)-(4-(benzo[d]thiazol-2-yl)-7,8-dihydroimidazo[4,5-c]azepin-5(1H,4H,6H)-yl)(2-(cyclopropylamino)-4-(trifluoromethyl)oxazol-5-yl)methanone] fall in the same range of AC50: 1000 to 5000 nM for the first, 1000 to 5000 nM for the second.

Compared with Cc1ncoc1C(=O)N1CCCc2[nH]cnc2[C@H]1c1nc2ccccc2s1 [Example 2129, (S)-(4-(benzo[d]thiazol-2-yl)-7,8-dihydroimidazo[4,5-c]azepin-5(1H,4H,6H)-yl)(4-methyloxazol-5-yl)methanone], Cc1ncoc1C(=O)N1CCCc2[nH]cnc2[C@@H]1c1nc2ccccc2s1 [Example 2130, (R)-(4-(benzo[d]thiazol-2-yl)-7,8-dihydroimidazo[4,5-c]azepin-5(1H,4H,6H)-yl)(4-methyloxazol-5-yl)methanone] is higher in AC50: 1000 to 5000 nM for the first, > 5000 nM for the second.

First: O=C(c1ocnc1C(F)(F)F)N1CCCc2[nH]cnc2[C@H]1c1nc2ccccc2s1 [Example 2131, (S)-(4-(benzo[d]thiazol-2-yl)-7,8-dihydroimidazo[4,5-c]azepin-5(1H,4H,6H)-yl)(4-(trifluoromethyl)oxazol-5-yl)methanone]
Second: O=C(c1ocnc1C(F)(F)F)N1CCCc2[nH]cnc2[C@@H]1c1nc2ccccc2s1 [Example 2132, (R)-(4-(benzo[d]thiazol-2-yl)-7,8-dihydroimidazo[4,5-c]azepin-5(1H,4H,6H)-yl)(4-(trifluoromethyl)oxazol-5-yl)methanone]
The AC50 of the first is lower: 500 to 1000 nM for the first, 1000 to 5000 nM for the second.

O=C(c1oc(N2CCOCC2)nc1C(F)(F)F)N1CCCc2[nH]cnc2[C@H]1c1nc2ccccc2s1 [Example 2133, (S)-(4-(benzo[d]thiazol-2-yl)-7,8-dihydroimidazo[4,5-c]azepin-5(1H,4H,6H)-yl)(2-morpholino-4-(trifluoromethyl)oxazol-5-yl)methanone] and O=C(c1oc(N2CCOCC2)nc1C(F)(F)F)N1CCCc2[nH]cnc2[C@@H]1c1nc2ccccc2s1 [Example 2134, (R)-(4-(benzo[d]thiazol-2-yl)-7,8-dihydroimidazo[4,5-c]azepin-5(1H,4H,6H)-yl)(2-morpholino-4-(trifluoromethyl)oxazol-5-yl)methanone] fall in the same range of AC50: 1000 to 5000 nM for the first, 1000 to 5000 nM for the second.

Compared with O=C(c1oc(CCC2CC2)nc1C(F)(F)F)N1CCCc2[nH]cnc2[C@H]1c1nc2ccccc2s1 [Example 2135, (S)-(4-(benzo[d]thiazol-2-yl)-7,8-dihydroimidazo[4,5-c]azepin-5(1H,4H,6H)-yl)(2-(2-cyclopropylethyl)-4-(trifluoromethyl)oxazol-5-yl)methanone], O=C(c1oc(CCC2CC2)nc1C(F)(F)F)N1CCCc2[nH]cnc2[C@@H]1c1nc2ccccc2s1 [Example 2136, (R)-(4-(benzo[d]thiazol-2-yl)-7,8-dihydroimidazo[4,5-c]azepin-5(1H,4H,6H)-yl)(2-(2-cyclopropylethyl)-4-(trifluoromethyl)oxazol-5-yl)methanone] is higher in AC50: < 500 nM for the first, 500 to 1000 nM for the second.

First: O=C(c1oc(C2(O)CCC2)nc1C(F)(F)F)N1CCCc2[nH]cnc2[C@@H]1c1nc2ccccc2s1 [Example 2138, (R)-(4-(benzo[d]thiazol-2-yl)-7,8-dihydroimidazo[4,5-c]azepin-5(1H,4H,6H)-yl)(2-(1-hydroxycyclobutyl)-4-(trifluoromethyl)oxazol-5-yl)methanone]
Second: O=C(CCc1nccs1)N1CCc2[nH]cnc2[C@H]1c1nccs1 [Example 2139, (S)-3-(thiazol-2-yl)-1-(4-(thiazol-2-yl)-6,7-dihydro-1H-imidazo[4,5-c]pyridin-5(4H)-yl)propan-1-one]
The AC50 of the first is lower: 1000 to 5000 nM for the first, > 5000 nM for the second.
